This note sets out measurements from patent US10160748B2 (AbbVie Inc., priority 2015, dated 2018).

This assay concerns the target TNFα trimer (Homo sapiens, UniProt P01375). Briefly: TNFα FP Competitive Binding Assay. Particulars: read-out: TNF IC50. The essentials:
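Fluorescence polarization competition: 20 nM TNFα trimer with 1 nM fluorescein-labelled probe in HEPES/NaCl/EDTA/Triton X-100 buffer, compound in 12-point 1:3 dilutions (final top 338 μM or 100 μM). Incubated 18-24 h, background-subtracted mP read, variable-slope dose-response fitting.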

Where [1] appears, read: FP binding assay, 20 nM TNFα trimer, 1 nM OregonGreen488 probe.

Where two headings read alike, the source gives them in different places.

Chain of TNFα trimer (P01375 77-233 limits assumed): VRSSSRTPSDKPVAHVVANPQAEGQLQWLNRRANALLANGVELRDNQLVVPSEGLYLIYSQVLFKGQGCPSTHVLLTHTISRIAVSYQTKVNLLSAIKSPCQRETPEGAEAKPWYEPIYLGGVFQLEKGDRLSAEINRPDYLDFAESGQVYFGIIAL

Turning to `Cn1c(=O)c2ccc(-c3cnc(N4CCOC(C)(C)C4)nc3)cc2n1Cc1ccccc1OC(F)F` [Example 2, 1-(2-(Difluoromethoxy)benzyl)-6-(2-(2,2-dimethylmorpholino)pyrimidin-5-yl)-2-methyl-1H-indazol-3(2H)-one], the 50% inhibitory concentration (IC50) under setting [1] was less than 1000 nM.

Regarding `Cc1ccc(OC(F)F)c(Cn2c3cc(-c4cnc(N5CCN[C@H](C)C5)nc4)ccc3c(=O)n2C)c1` [Example 14.5, (R)-1-(2-(difluoromethoxy)-5-methylbenzyl)-2-methyl-6-(2-(3-methylpiperazin-1-yl)pyrimidin-5-yl)-1H-indazol-3(2H)-one], the IC50 under setting [1] lay in the range of 1000 to 10000 nM.

Consider `Cn1c(=O)c2ccc(-c3cnc(N4CCN5C(=O)CCC5C4)nc3)cc2n1Cc1ccccc1OC(F)F` (stereo not drawn) [Example 2.23], for which, under setting [1], the IC50 was less than 1000 nM.

Take `Cc1ccc(OC(F)F)c(Cn2c3nc(-c4cnc(C(C)(C)O)nc4C)c(F)cc3c(=O)n2C)c1` [Example 98, 1-(2-(Difluoromethoxy)-5-methylbenzyl)-5-fluoro-6-(2-(2-hydroxypropan-2-yl)-4-methylpyrimidin-5-yl)-2-methyl-1,2-dihydro-3H-pyrazolo[3,4-b]pyridin-3-one]: the IC50 under setting [1] was less than 1000 nM.

On to `COCc1cccc(OC(F)F)c1Cn1c2cc(-c3cnc(C(C)(C)O)nc3)ccc2c(=O)n1C` [Example 77, 1-(2-(Difluoromethoxy)-6-(methoxymethyl)benzyl)-6-(2-(2-hydroxypropan-2-yl)pyrimidin-5-yl)-2-methyl-1H-indazol-3(2H)-one], for which the IC50 under setting [1] was 1000 to 10000 nM.

As to `CC(C)[C@H](N)C(=O)OCc1ccc(OC(F)F)c(Cn2c3cc(-c4cnc(N5CCN6C(=O)NC[C@@H]6C5)nc4)ccc3c(=O)n2C)c1` [Example 14.16], the IC50 under setting [1] is less than 1000 nM.

For the molecule `Cn1c(=O)c2ccc(-c3cnc(N4CCN5C(=O)NC[C@@H]5C4)nc3)cc2n1Cc1nc(CO)ccc1OC(F)F` [Example 84], the IC50 under setting [1] is less than 1000 nM.

As for `COc1ncc(-c2ccc3c(=O)n(C)n(Cc4ccccc4OC(F)F)c3c2)cn1` [Example 5.4], the IC50 under setting [1] lay in the range of 1000 to 10000 nM.

For the molecule `CC(=O)N1CCN(c2ncc(-c3ccc4c(=O)n(C)n(Cc5nc(C)ccc5C(F)(F)F)c4c3)cn2)[C@H](C)C1` [Example 74, (R)-6-(2-(4-Acetyl-2-methylpiperazin-1-yl)pyrimidin-5-yl)-2-methyl-1-((6-methyl-3-(trifluoromethyl)pyridin-2-yl)methyl)-1H-indazol-3(2H)-one], the IC50 under setting [1] is less than 1000 nM.

Turning to `Cn1c(=O)c2ccc(-c3cnc(C(C)(C)O)nc3)cc2n1Cc1cc(NCC(C)(C)O)ccc1Cl` [Example 122, 1-(2-Chloro-5-((2-hydroxy-2-methylpropyl)amino)benzyl)-6-(2-(2-hydroxypropan-2-yl)pyrimidin-5-yl)-2-methyl-1H-indazol-3(2H)-one], the IC50 under setting [1] fell in the range of 1000 to 10000 nM.

Turning to `C[C@@H]1CN(c2ncc(-c3ccc4c(=O)n(C)n(Cc5ccccc5OC(F)F)c4c3F)cn2)CCN1C(=O)CO` [Example 24.6], the IC50 under setting [1] was less than 1000 nM.

For the molecule `CC(c1cc(F)ccc1F)n1c2cc(-c3cnc(N4CCN(C(=O)CO)[C@H](C)C4)nc3)ccc2c(=O)n1C` (stereo partly drawn) [Example 24.7], the IC50 under setting [1] was less than 1000 nM.

As for `CC(=O)N1CCN(c2ncc(-c3ccc4c(=O)n(C)n(Cc5c[nH]cc5C(F)(F)F)c4c3)cn2)C[C@H]1C` [Example 27.5], under setting [1], the IC50 is less than 1000 nM.

As to `CC(=O)N1CCN(c2ncc(-c3ccc4c(=O)n(C)n(Cc5ccccc5OC(F)F)c4c3)cn2)[C@H](C)C1` [Example 10.16], the IC50 under setting [1] is less than 1000 nM.

For `Cc1c(-c2cnc(N3CCN(C(=O)CO)[C@H](C)C3)nc2)ccc2c(=O)n(C)n(Cc3ccccc3Cl)c12` [Example 24.13], the IC50 under setting [1] is less than 1000 nM.

In the case of `Cn1c(=O)c2ccc(-c3cnc(N4CCN5C(=O)NCC5C4)nc3)cc2n1Cc1ccccc1OC(F)F` (stereo not drawn) [Example 2.27, 7-(5-(1-(2-(Difluoromethoxy)benzyl)-2-methyl-3-oxo-2,3-dihydro-1H-indazol-6-yl)pyrimidin-2-yl)hexahydroimidazo[1,5-a]pyrazin-3(2H)-one], the IC50 under setting [1] was less than 1000 nM.

Take `CC(=O)N1CCN(c2ncc(-c3ccc4c(=O)n(C)n(Cc5nc(CC#N)ccc5C(F)(F)F)c4c3)cn2)C[C@H]1C` [Example 61, (R)-2-(6-((6-(2-(4-Acetyl-3-methylpiperazin-1-yl)pyrimidin-5-yl)-2-methyl-3-oxo-2,3-dihydro-1H-indazol-1-yl)methyl)-5-(trifluoromethyl)pyridin-2-yl)acetonitrile]: the IC50 under setting [1] was less than 1000 nM.

In the case of `Cn1c(=O)c2ccc(-c3cnc(N[C@H]4CCNC(=O)C4)nc3)cc2n1Cc1cc(CO)ccc1OC(F)F` (single isomer, unassigned) [Example 25], the IC50 under setting [1] was less than 1000 nM.

Turning to `[2H]C([2H])([2H])n1c(=O)c2ccc(-c3cnc(N4CCN5C(=O)OC[C@H]5C4)nc3)cc2n1Cc1cc(C)ccc1OC(F)F` [Example 57, (R)-7-(5-(1-(2-(Difluoromethoxy)-5-methylbenzyl)-2-(methyl-d3)-3-oxo-2,3-dihydro-1H-indazol-6-yl)pyrimidin-2-yl)hexahydro-3H-oxazolo[3,4-a]pyrazin-3-one], the IC50 under setting [1] was less than 1000 nM.

Consider `Cn1c(=O)c2ccc(-c3cnc(N4CCOCC4)nc3)cc2n1Cc1cccc(F)c1` [Example 1.1], for which, under setting [1], the IC50 was 1000 to 10000 nM.

Consider `C[C@H](N)C(=O)OCc1ccc(OC(F)F)c(Cn2c3cc(-c4cnc(N5CCN6C(=O)NC[C@@H]6C5)nc4)ccc3c(=O)n2C)c1` [Example 14.15], for which, under setting [1], the IC50 was less than 1000 nM.

As for `COCc1ccc(OC(F)F)c(Cn2c3cc(-c4cnc(N5CCN(C(C)=O)CC5)nc4)ccc3c(=O)n2C)c1` [Example 90, 6-(2-(4-Acetylpiperazin-1-yl)pyrimidin-5-yl)-1-(2-(difluoromethoxy)-5-(methoxymethyl)benzyl)-2-methyl-1H-indazol-3(2H)-one], under setting [1], the IC50 is 1000 to 10000 nM.

On to `CC(=O)N1CCN(c2ncc(-c3ccc4c(=O)n(C)n(Cc5nc(C)ccc5Cl)c4c3)cn2)C[C@H]1C` [Example 105, (R)-6-(2-(4-Acetyl-3-methylpiperazin-1-yl)pyrimidin-5-yl)-1-((3-chloro-6-methylpyridin-2-yl)methyl)-2-methyl-1,2-dihydro-3H-indazol-3-one], for which the IC50 under setting [1] was less than 1000 nM.

Consider `Cc1ccc(OC(F)F)c(Cn2c3cc(-c4cnc(N5CCN6C(=O)NCC6C5)nc4)ccc3c(=O)n2C)c1` (single isomer, unassigned) [Example 8], for which the IC50 under setting [1] was less than 1000 nM.

As to `Cn1c(=O)c2ccc(-c3cnc(N4CCOCC4)nc3)cc2n1Cc1c(F)cccc1OC(F)F` [Example 1, 1-(2-(Difluoromethoxy)-6-fluorobenzyl)-2-methyl-6-(2-morpholinopyrimidin-5-yl)-1H-indazol-3(2H)-one], the IC50 under setting [1] is less than 1000 nM.

With `C[C@@H]1CN(c2ccc(-c3cc4c(cc3F)c(=O)n(C)n4Cc3ccccc3OC(F)F)cn2)CCN1C(=O)CO` [Example 60, (R)-1-(2-(Difluoromethoxy)benzyl)-5-fluoro-6-(6-(4-(2-hydroxyacetyl)-3-methylpiperazin-1-yl)pyridin-3-yl)-2-methyl-1H-indazol-3(2H)-one], under setting [1], the IC50 was less than 1000 nM.

As to `Cc1ccc(OC(F)F)c(Cn2c3nc(-c4cnc(N5CCN(C(=O)CO)C[C@H]5C)nc4)ccc3c(=O)n2C)c1` [Example 80, (R)-1-(2-(Difluoromethoxy)-5-methylbenzyl)-6-(2-(4-(2-hydroxyacetyl)-2-methylpiperazin-1-yl)pyrimidin-5-yl)-2-methyl-1H-pyrazolo[3,4-b]pyridin-3(2H)-one], the IC50 under setting [1] is less than 1000 nM.

As for `Cn1c(=O)c2ccc(-c3cnc(C(C)(C)O)nc3)cc2n1Cc1cc(Cc2cn[nH]c2)ccc1OC(F)F` [Example 111, 1-(5-((1H-Pyrazol-4-yl)methyl)-2-(difluoromethoxy)benzyl)-6-(2-(2-hydroxypropan-2-yl)pyrimidin-5-yl)-2-methyl-1H-indazol-3(2H)-one], under setting [1], the IC50 was less than 1000 nM.

Turning to `Cn1c(=O)c2ccc(-c3cnc(N4CCN5C(=O)OC[C@H]5C4)nc3)cc2n1Cc1cc(CC#N)ccc1OC(F)F` [Example 79, (R)-2-(4-(Difluoromethoxy)-3-((2-methyl-3-oxo-6-(2-(3-oxotetrahydro-1H-oxazolo[3,4-a]pyrazin-7(3H)-yl)pyrimidin-5-yl)-2,3-dihydro-1H-indazol-1-yl)methyl)phenyl)acetonitrile], the concentration for half-maximal inhibition (IC50) under setting [1] is less than 1000 nM.

For the molecule `Cc1ccc(OC(F)F)c(Cn2c3cc(-c4cnc(N5CCN(C(=O)C6CCO6)[C@H](C)C5)nc4)ccc3c(=O)n2C)c1` (stereo partly drawn) [Example 21.3], the IC50 under setting [1] is less than 1000 nM.

With `C[C@H](O)CNc1ccc(Cl)c(Cn2c3cc(-c4cnc(C(C)(C)O)nc4)ccc3c(=O)n2C)c1` [Example 30.1], the IC50 fell in the range of 1000 to 10000 nM.

For `C[C@@H]1CN(c2ncc(-c3ccc4c(=O)n(C)n(Cc5ccccc5OC(F)F)c4c3C#N)cn2)CCN1C(=O)CO` [Example 23.3], the IC50 under setting [1] is less than 1000 nM.

In the case of `Cn1c(=O)c2ccc(-c3cnc(N4CCOCC4)nc3)cc2n1Cc1cc(Cl)ccc1Cl` [Example 7.1], the IC50 under setting [1] was less than 1000 nM.

`Cc1ccc(OC(F)F)c(Cn2c3cc(-c4cnc(N5CCC(C(N)=O)C5)nc4)ccc3c(=O)n2C)c1` (stereo not drawn) [Example 20.1]: the IC50 under setting [1] lay in the range of 1000 to 10000 nM.

In the case of `[2H]C([2H])([2H])n1c(=O)c2ccc(-c3cnc(N4CCN(C(=O)CO)[C@H](C)C4)nc3)cc2n1Cc1cc(C)ccc1OC(F)F` [Example 62, (R)-1-(2-(Difluoromethoxy)-5-methylbenzyl)-6-(2-(4-(2-hydroxyacetyl)-3-methylpiperazin-1-yl)pyrimidin-5-yl)-2-(methyl-d3)-1H-indazol-3(2H)-one], under setting [1], the IC50 is less than 1000 nM.

Turning to `CN1CC[C@H](Nc2ncc(-c3ccc4c(=O)n(C)n(Cc5cc(CO)ccc5OC(F)F)c4c3)cn2)CC1=O` (single isomer, unassigned) [Example 27], the IC50 under setting [1] was 1000 to 10000 nM.

Take `Cn1c(=O)c2ccc(-c3cnc(C(C)(C)O)nc3)cc2n1Cc1cc(CC#N)ccc1OC(F)F` [Example 26.8]: under setting [1], the IC50 lay within 1000 to 10000 nM.

`CC(=O)N1CCN(c2ncc(-c3ccc4c(=O)n(C)n(Cc5cc(C)ccc5OC(F)F)c4c3)cn2)C[C@H]1CO` [Example 22.10]: the half-inhibitory concentration (IC50) under setting [1] was less than 1000 nM.

Consider `Cc1ccccc1Cn1c2cc(-c3cnc(N4CCOCC4)nc3)ccc2c(=O)n1C` [Example 1.3], for which the IC50 under setting [1] was in the range of 1000 to 10000 nM.

The IC50 is the midpoint of a concentration-inhibition curve.
